This passage reports inhibition results from ChEMBL document CHEMBL5653615 (J Biol Chem, 2013).

For assay [1], the target named is T1, Serine/threonine-protein kinase 17A (Homo sapiens) (UniProt Q9UEE5).
T1 sequence (whole entry): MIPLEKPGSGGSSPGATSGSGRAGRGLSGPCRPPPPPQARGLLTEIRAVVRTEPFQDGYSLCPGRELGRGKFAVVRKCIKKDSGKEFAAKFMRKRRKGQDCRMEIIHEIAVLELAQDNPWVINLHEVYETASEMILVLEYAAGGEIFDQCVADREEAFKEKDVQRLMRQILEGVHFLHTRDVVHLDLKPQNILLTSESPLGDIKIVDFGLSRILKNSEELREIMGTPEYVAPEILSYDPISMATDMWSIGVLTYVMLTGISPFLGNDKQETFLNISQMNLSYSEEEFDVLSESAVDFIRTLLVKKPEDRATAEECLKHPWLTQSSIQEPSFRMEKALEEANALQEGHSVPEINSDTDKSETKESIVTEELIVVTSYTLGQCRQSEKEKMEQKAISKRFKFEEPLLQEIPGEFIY
The assay is described as follows: Inhibition of human DRAK1 at 1.82 nM by HotSpot assay relative to control.

The target in assay [2] is T2, Protein kinase C zeta type (Homo sapiens) (UniProt Q05513).
T2 sequence (whole entry): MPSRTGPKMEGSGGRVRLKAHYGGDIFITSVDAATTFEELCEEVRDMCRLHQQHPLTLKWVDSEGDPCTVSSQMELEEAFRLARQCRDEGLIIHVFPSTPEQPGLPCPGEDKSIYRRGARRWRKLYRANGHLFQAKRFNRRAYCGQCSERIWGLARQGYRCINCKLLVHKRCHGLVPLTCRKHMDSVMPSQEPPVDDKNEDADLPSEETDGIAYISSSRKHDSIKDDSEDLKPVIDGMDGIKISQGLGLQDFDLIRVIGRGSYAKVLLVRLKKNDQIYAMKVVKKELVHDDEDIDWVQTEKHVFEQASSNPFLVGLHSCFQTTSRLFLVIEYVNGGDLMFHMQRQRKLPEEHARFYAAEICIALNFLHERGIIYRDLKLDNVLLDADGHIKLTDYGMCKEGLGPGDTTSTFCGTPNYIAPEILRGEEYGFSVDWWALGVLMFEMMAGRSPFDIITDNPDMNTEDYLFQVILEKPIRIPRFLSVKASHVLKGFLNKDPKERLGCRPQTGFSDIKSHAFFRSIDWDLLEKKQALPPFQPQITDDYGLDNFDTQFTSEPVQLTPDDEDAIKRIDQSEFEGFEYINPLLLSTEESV
Description: Inhibition of human PKCzeta at 1.82 nM by HotSpot assay relative to control.

Assay [3] concerns the target T3, 3-phosphoinositide-dependent protein kinase 1 (Homo sapiens) (UniProt O15530).
T3 sequence (whole entry): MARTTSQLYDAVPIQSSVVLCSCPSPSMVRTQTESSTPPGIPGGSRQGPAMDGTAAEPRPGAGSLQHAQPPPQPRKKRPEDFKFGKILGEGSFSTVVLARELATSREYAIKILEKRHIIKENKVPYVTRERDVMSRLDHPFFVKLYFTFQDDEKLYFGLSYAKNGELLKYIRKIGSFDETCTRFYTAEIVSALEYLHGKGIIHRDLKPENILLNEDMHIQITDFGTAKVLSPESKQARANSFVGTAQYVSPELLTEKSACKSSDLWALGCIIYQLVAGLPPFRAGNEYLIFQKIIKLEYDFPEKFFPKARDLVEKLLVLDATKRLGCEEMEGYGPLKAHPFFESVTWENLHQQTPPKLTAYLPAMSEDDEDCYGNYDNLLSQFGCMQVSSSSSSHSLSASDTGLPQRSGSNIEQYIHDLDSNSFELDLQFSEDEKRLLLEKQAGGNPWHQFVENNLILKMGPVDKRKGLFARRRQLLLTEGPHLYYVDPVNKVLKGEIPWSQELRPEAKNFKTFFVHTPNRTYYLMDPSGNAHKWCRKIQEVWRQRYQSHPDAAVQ
The assay is described as follows: Inhibition of human PDPK1 at 18.6 nM by HotSpot assay relative to control.

The target in assay [4] is Protein kinase C beta type (Homo sapiens) (UniProt P05771). Description: Inhibition of human PKCb2 at 18.6 nM by HotSpot assay relative to control.
Sequence of Protein kinase C beta type (Homo sapiens) (P05771 2-671 limits assumed): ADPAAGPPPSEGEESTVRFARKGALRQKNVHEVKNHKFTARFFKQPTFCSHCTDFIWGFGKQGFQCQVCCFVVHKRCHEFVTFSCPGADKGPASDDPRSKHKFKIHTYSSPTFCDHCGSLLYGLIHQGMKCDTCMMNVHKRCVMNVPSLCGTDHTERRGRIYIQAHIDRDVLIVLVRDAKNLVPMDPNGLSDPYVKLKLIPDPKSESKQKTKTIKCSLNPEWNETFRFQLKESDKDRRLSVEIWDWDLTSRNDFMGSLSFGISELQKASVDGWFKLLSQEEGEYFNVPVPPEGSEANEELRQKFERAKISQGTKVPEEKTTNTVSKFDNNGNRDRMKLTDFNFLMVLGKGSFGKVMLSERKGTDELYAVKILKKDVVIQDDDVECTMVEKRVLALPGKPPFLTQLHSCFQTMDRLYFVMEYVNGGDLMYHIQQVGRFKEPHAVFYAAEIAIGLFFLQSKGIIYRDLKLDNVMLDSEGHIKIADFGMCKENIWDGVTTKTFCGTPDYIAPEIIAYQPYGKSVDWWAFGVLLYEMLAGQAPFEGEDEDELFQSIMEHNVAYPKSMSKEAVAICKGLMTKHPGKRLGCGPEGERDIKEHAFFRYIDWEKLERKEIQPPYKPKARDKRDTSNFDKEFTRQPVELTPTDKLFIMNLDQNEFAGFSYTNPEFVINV
For assay [5], the target named is T4, NUAK family SNF1-like kinase 2 (Homo sapiens) (UniProt Q9H093).
T4 sequence (whole entry): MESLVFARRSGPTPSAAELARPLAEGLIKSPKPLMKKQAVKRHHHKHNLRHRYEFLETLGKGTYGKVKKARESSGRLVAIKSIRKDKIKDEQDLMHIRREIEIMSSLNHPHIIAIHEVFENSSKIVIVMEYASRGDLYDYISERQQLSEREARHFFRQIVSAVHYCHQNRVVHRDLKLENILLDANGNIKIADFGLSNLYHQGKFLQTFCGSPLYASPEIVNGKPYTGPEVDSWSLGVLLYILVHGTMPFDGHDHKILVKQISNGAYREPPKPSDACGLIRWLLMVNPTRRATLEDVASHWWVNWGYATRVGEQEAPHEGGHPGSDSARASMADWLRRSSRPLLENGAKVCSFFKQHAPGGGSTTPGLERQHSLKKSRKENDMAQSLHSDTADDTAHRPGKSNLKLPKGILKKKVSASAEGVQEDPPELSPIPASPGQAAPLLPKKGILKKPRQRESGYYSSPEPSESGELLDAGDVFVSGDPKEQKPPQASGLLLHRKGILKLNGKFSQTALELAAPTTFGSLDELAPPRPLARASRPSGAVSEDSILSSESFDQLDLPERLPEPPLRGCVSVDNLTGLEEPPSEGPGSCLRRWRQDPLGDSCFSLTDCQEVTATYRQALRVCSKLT
Description: Inhibition of human NUAK2 at 18.6 nM by HotSpot assay relative to control.

Usually inhibition stands for the relative decrease from the control value, in per cent. Take `C[C@@]1(C(=O)Nc2ccc(F)nc2)CCCN1c1nc(Nc2cc(C3CC3)n[nH]2)c2cccn2n1`: the inhibition was 2.5% in assay [1] and -1.74% in assay [2].
Take `C[C@]1(O)C[C@@H](c2nc(-c3ccc4ccc(-c5ccccc5)nc4c3)c3c(N)nccn32)C1`: the results for the inhibition in assay [3], in assay [4] and in assay [5] were -0.41%, -7.92% and 11%, respectively.
